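Cultured in 96-well plates, cells were exposed to test compound for 48 hours across five concentrations. GI50 is the concentration that inhibits growth by half. At the TGI there is no net growth.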
Tests used:
Assay in all cases: NCI-60 cell line screen, 48 h
A549 NSCLC = system: A549 NSCLC
HT29 colon = system: HT29 colon
MDA-MB-435 = system: MDA-MB-435
NCI-H226 lung = system: NCI-H226 lung
OVCAR-8 ovarian = system: OVCAR-8 ovarian
RXF 393 renal = system: RXF 393 renal
SF-295 CNS = system: SF-295 CNS
SN12C renal = system: SN12C renal

Row | SMILES | GI50 (A549 NSCLC) [µM] | TGI (A549 NSCLC) [µM] | GI50 (HT29 colon) [µM] | TGI (HT29 colon) [µM] | GI50 (MDA-MB-435) [µM] | TGI (MDA-MB-435) [µM] | GI50 (NCI-H226 lung) [µM] | TGI (NCI-H226 lung) [µM] | GI50 (OVCAR-8 ovarian) [µM] | TGI (OVCAR-8 ovarian) [µM] | GI50 (RXF 393 renal) [µM] | TGI (RXF 393 renal) [µM] | GI50 (SF-295 CNS) [µM] | TGI (SF-295 CNS) [µM] | GI50 (SN12C renal) [µM] | TGI (SN12C renal) [µM]
1 | C[C@@H](Oc1cc(-c2cnn(C3CC4(CCNCC4)C3)c2)cnc1N)c1c(F)ccc(Cl)c1Cl | 1.04 | 3.63 | 0.446 | 2.17 | 1.06 | 2.39 | 2.51 | 17.5 | 2.71 | 12.3 | 1.35 | 2.73 | 0.612 | 2.43 | 1.49 | 7.1
2 | COc1cc(C(=O)O)ccc1NC(=O)[C@@H]1N[C@@H](CC(C)(C)C)[C@](C#N)(c2ccc(Cl)cc2F)[C@H]1c1cccc(Cl)c1F | 0.138 | 8.21 | 3.39 | 22.2 | 2.82 | 13.1 | 0.0941 | 1.71 | 4.08 | 23 | 3.55 | 10.3 | 2.78 | 8.64 | 4.27 | > 41.9
3 | COc1cc(-c2ccc(-[n+]3nc(-c4ccc([N+](=O)[O-])cc4)nn3-c3ccc([N+](=O)[O-])cc3)c(OC)c2)ccc1-[n+]1nc(-c2ccc([N+](=O)[O-])cc2)nn1-c1ccc([N+](=O)[O-])cc1 | 3.46 | 31.2 | 3.43 | 15.2 | 2.51 | 6.62 | 12.1 | 45.7 | 12.9 | > 71.5 | 2.25 | 6.08 | 3.07 | 16.1 | 7.05 | 40.3
4 | C=C1C(=O)O[C@H]2[C@H]1CC/C(Cn1cc(Cn3ccc4cc(Cl)ccc43)nn1)=C\CC[C@@]1(C)O[C@@H]21 | 10.2 | 24.8 | 1.83 | 4.46 | 1.56 | 2.98 | 1.59 | 3.03 | 1.66 | 3.57 | 1.17 | 2.46 | 3.98 | 17 | 1.5 | 3.2
5 | Nc1c(C(=O)Nc2cccc3ccccc23)sc2nc3c(cc12)CCCCC3 | 1.9 | > 50 | 1.05 | 4 | 0.116 | 0.32 | 7.58 | > 50 | 1.68 | > 50 | 0.992 | > 50 | 0.421 | > 50 | 2.26 | > 50
6 | COc1cc2c3c(n(CCCn4ccnc4)c(=O)c2cc1OC)-c1ccccc1C3=O | < 0.0337 | 0.413 | < 0.0406 | 0.603 | 0.0417 | 0.779 | 0.05 | 0.983 | 0.0584 | 4.84 | < 0.01 | – | < 0.01 | 0.218 | < 0.0467 | 5.4
7 | O=C(/C=C/C12c3ccccc3C(c3ccccc31)C1C(=O)NC(=O)C12)c1ccco1 (centres undefined) | 3.25 | 10.1 | 2.28 | 5.06 | 2.35 | 5.84 | 3.03 | 9.85 | 3.12 | 12.5 | 1.79 | 3.48 | 3.33 | 11.6 | 3.21 | 11.3
8 | COc1cc(N)ccc1Nc1c2ccccc2nc2ccccc12 | 4.32 | 24.9 | 3.29 | 11 | 17 | 33.2 | 2.35 | 10.2 | 10.2 | 36 | 11.5 | 27 | 12 | 30.1 | 7.73 | 24.9
9 | Cc1ccc(-c2nc3nc(-c4ccc(Cl)cc4)nc(N4CCCNCC4)c3o2)cc1 | 1.91 | 3.83 | 1.93 | 3.94 | 1.81 | 3.25 | 1.78 | 3.87 | 2.15 | 4.77 | 1.58 | 3.03 | 1.82 | 3.39 | 1.66 | 3.15
10 | O=C(c1cccs1)c1c(C(F)(F)F)n([O-])c2cc(C(F)(F)F)ccc2[n+]1=O | 0.242 | 0.69 | 0.193 | 0.419 | 0.315 | 0.877 | 0.647 | 1.71 | 0.263 | 1.48 | 0.184 | 0.351 | 0.322 | 0.889 | 0.2 | 0.408
